Measurements reported in US9505841B2, “Use of an anti-Ang2 antibody” (Samsung Electronics Co., Ltd., priority 2013, dated 2016).

Key:
[1] = system: LLC tumor; assay: Co-administration of anti-Ang2 antibody and cisplatin in LLC lung cancer animal model; assay type: in vivo, mouse; settings: LLC mice; antibody 10 mg/kg i.p. every three days, five times; cisplatin 3 mg/kg i.p. once; control Fc of IgG1
Description: The synergistic effect of co-treatment of antibody 10D6 and cisplatin was examined.
In particular, referring to Example 14, LLC tumor cells were subcutaneously injected into mice. When the size of tumors reached 50˜100 mm^3, anti-Ang2 antibody 10D6 was injected at the concentration of 10 mg/kg via an intraperitoneal injection every three days a total of five times. After administering antibody 10D6 twice, 3 mg/kg of cisplatin (Sigma-Aldrich) was intraperitoneally injected once. The size of tumor (V) was calculated using the following formula: Volume (V)=(width)2×length/2
For comparison, the same experiment was performed to a control group treated with Fc of IgG1 and a comparative group treated with antibody 4H10.
In addition, an experiment was performed to examine whether the synergistic effect obtained by co-administration of 10D6 and cisplatin as described above is due to the increased transporting efficiency of the administered cisplatin induced by the vascular normalization by treatment of 10D6. Cisplatin binds to DNA in a living body and induces crosslinking, thereby inducing cell death. Rat monoclonal anti-Cisplatin modified DNA (CP9/19) antibody (1:200, Abcam), which is capable of binding to DNA modified by cisplatin in tumor frozen sections, and hamster anti-CD31 antibody (1:200, Millipore), were used for immunofluorescence staining, and fluorescence images were obtained using LSM5 confocal microscope (Zeiss). In addition, to examine necrotic region, the tumor frozen sections were stained with H&E according to standard protocol, and then, Eosin+ cell region in tumor was observed. The obtained results are illustrated in FIG. 18C.

[2] = system: Tie2 receptor; assay: Tie2, Akt and 42/44 phosphorylation in HUVEC: antibody 10D6 versus 10D6 Fab; assay type: cell-based, human; settings: 60 nM 10D6 antibody or 10D6 Fab with 40 nM Ang2
Description: To see whether the activation of a Tie2 receptor is resulted from the dimerization of antibody 10D6, Fab fragments of antibody 10D6 were purified and then used for this experiment. The Fab fragments were obtained from antibody 10D6 using an Fab Preparation Kit (Pierce). As a digestion buffer, PBS containing 20 mM EDTA and 20 mM L-Cysteine was used, and the antibody was separated into Fab and Fc by the treatment with an immobilized papain at a room temperature for 2 hours. The Fc fragments were removed from the reaction solution using MabSelectSuRe column (GE Healthcare) to isolate and purify pure Fab fragments only.
HUVEC (ATCC) cells (1×10^6) were cultured in a 100 mm culture dish using EGM-2 (Lonza) media at 37° C. and when they reached 80˜90% confluency, the media were replaced with serum-free media (Lonza) and cultured at 37° C. for 6 to 16 hours. The dish was washed once with PBS and after the replacement with […] sodium orthovanadate (Sigma)-mixed serum free media (Lonza), they were further cultured for 10 min. After washed once with PBS, the cultured cells were treated with a mixture prepared by mixing 60 nM of 10D6 Ang2 antibody or 10D6 Fab with 40 nM of Ang2 protein (R&D systems) and letting them stand for 20 min. and further cultured for 10 min. […]

N.N.[Cl][Pt][Cl] [cisplatin, reference compound]
tumor size decreased by, compared to the control [1]: 17.6%

B1: 10D6 Fab: Fab fragments of antibody 10D6 obtained by immobilized papain digestion and removal of Fc (antibody, V domains shown)
VH: DVQLQESGPGLVKPSQSLSLTCTVTGYSITSDYAWNWIRQFPGNKLEWMGYINYSGNTDYNPSLKSRSSITRDTSKNQFFLQLNSVTTGDTATYYCARGNFEGAMDYWGQGTSVTVSS
VL: SIVMTQTPKFLLVSAGDRVTITCKASQSVSNDVAWYQQKPGQSPKLLIYYASNRYPGVPDRFTGSGYGTDFTFTISTVQAEDLAVYFCQQDYSSPWTFGGGTKLEIK
phosphorylation of Tie2, Akt and 42/44 [2]: activation was not observed
